Results from the kinase profiling compilation of Christmann-Franck et al. (2016).

Assays:
Conditions in all cases: compound 10.0 µM
ABL1 (human) = ABL1 (human) (UniProt P00519)
AKT1 (human) = AKT1 (human) (UniProt P31749)
[1] = target: CAMK2A or CAMK2B or CAMK2D or CAMK2G (human) (UniProt Q13555+Q13557+Q9UQM7+Q13554)
CAMK4 (human) = CAMK4 (human) (UniProt Q16566)
DYRK1A (human) = DYRK1A (human) (UniProt Q13627)
FGFR1 (human) = FGFR1 (human) (UniProt P11362)
IGF1R (human) = IGF1R (human) (UniProt P08069)
KDR (human) = KDR (human) (UniProt P35968)
MAP3K7 (human) = MAP3K7 (human) (UniProt O43318)
MAP4K4 (human) = MAP4K4 (human) (UniProt O95819)
MARK1 (human) = MARK1 (human) (UniProt Q9P0L2)
MET (human) = MET (human) (UniProt P08581)
PIM2 (human) = PIM2 (human) (UniProt Q9P1W9)
PRKG1 (human) = PRKG1 (human) (UniProt Q13976)
RPS6KB1 (human) = RPS6KB1 (human) (UniProt P23443)
SGK1 (human) = SGK1 (human) (UniProt O00141)
MAPKAPK5 (human) = MAPKAPK5 (human) (UniProt Q8IW41)
CHEK1 (human) = CHEK1 (human) (UniProt O14757)
INSR (human) = INSR (human) (UniProt P06213)
PAK2 (human) = PAK2 (human) (UniProt Q13177)

Sequence of CAMK2A or CAMK2B or CAMK2D or CAMK2G (human) (Q13554 whole entry, looked up): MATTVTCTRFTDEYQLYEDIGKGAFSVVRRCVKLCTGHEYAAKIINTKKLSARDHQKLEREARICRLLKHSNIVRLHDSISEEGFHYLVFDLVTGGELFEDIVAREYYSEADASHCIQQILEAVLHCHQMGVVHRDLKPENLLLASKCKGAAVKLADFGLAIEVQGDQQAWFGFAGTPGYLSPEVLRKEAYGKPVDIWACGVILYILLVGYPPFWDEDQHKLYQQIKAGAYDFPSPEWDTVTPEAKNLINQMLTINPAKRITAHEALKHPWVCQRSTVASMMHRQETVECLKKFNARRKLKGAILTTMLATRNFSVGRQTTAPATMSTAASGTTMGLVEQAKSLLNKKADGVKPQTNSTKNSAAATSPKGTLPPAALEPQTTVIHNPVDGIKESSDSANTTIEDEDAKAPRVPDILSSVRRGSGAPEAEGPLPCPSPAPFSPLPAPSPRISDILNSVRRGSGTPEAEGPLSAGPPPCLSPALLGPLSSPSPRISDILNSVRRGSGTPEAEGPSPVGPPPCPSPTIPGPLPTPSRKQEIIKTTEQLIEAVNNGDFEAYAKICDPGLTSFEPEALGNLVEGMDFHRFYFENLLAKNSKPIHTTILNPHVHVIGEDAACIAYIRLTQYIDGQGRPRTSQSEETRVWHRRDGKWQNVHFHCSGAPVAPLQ
Sequence of CAMK2A or CAMK2B or CAMK2D or CAMK2G (human) (Q13555 whole entry, looked up): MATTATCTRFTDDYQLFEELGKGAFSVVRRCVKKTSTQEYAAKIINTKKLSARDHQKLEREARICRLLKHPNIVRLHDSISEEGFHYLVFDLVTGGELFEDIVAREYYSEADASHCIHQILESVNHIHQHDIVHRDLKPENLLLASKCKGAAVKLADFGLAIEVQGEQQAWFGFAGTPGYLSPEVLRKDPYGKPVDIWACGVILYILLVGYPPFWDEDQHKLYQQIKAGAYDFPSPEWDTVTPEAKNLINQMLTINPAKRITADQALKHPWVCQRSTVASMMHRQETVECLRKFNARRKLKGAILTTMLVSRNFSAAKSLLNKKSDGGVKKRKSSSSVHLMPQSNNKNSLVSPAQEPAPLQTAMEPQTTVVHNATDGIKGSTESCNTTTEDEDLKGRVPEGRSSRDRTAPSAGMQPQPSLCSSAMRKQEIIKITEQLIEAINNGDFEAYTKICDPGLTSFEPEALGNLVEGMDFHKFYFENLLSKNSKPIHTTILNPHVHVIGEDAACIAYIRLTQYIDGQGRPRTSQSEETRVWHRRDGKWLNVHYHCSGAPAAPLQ
Sequence of CAMK2A or CAMK2B or CAMK2D or CAMK2G (human) (Q13557 whole entry, looked up): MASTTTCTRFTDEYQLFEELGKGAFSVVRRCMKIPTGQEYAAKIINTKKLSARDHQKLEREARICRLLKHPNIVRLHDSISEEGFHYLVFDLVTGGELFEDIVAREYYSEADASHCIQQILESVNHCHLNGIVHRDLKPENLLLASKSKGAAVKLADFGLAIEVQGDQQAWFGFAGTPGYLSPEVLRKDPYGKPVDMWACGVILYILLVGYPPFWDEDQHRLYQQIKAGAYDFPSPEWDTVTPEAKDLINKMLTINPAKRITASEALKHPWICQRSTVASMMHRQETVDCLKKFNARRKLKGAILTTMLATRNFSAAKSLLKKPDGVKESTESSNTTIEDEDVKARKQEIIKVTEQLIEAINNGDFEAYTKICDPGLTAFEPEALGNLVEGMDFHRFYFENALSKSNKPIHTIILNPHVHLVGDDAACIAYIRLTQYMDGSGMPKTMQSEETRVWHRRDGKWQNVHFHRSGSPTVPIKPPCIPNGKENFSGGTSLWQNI
Sequence of CAMK2A or CAMK2B or CAMK2D or CAMK2G (human) (Q9UQM7 whole entry, looked up): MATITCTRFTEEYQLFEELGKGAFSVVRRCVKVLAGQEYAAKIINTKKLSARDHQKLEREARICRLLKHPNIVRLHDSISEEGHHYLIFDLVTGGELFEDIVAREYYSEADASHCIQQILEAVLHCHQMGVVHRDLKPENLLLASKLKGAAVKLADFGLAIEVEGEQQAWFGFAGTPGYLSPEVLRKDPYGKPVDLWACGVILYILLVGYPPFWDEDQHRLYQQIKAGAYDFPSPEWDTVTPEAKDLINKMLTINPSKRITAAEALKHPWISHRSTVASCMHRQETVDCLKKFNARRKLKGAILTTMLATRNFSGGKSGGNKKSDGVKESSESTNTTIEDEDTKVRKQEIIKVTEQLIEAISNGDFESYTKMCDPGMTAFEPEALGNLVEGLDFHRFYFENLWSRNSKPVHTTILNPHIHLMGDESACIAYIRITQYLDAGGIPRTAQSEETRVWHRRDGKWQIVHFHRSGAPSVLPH
Sequence of RPS6KB1 (human) (P23443 whole entry, looked up): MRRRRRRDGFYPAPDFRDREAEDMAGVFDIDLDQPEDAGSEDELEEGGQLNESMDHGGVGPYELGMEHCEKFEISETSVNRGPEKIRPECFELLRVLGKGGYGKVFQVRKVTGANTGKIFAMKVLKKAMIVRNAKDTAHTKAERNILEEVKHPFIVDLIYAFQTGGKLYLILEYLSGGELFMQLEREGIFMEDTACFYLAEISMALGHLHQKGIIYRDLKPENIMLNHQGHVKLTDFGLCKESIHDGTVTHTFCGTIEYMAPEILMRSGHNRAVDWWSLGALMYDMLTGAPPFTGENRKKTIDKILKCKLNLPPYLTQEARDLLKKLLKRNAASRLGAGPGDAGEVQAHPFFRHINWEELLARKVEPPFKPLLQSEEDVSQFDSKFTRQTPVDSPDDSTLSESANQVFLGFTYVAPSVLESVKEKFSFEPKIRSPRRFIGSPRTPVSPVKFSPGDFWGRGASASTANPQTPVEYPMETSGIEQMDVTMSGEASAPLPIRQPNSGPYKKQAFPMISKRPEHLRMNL
Sequence of PIM2 (human) (Q9P1W9 whole entry, looked up): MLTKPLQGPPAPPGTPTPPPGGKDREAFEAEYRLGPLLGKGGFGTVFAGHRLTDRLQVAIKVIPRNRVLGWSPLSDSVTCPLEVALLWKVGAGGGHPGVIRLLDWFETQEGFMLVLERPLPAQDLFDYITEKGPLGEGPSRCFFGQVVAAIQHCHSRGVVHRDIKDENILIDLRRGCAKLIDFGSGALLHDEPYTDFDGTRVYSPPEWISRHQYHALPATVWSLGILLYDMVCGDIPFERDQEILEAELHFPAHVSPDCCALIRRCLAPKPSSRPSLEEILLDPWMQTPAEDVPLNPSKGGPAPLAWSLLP
Sequence of IGF1R (human) (P08069 whole entry, looked up): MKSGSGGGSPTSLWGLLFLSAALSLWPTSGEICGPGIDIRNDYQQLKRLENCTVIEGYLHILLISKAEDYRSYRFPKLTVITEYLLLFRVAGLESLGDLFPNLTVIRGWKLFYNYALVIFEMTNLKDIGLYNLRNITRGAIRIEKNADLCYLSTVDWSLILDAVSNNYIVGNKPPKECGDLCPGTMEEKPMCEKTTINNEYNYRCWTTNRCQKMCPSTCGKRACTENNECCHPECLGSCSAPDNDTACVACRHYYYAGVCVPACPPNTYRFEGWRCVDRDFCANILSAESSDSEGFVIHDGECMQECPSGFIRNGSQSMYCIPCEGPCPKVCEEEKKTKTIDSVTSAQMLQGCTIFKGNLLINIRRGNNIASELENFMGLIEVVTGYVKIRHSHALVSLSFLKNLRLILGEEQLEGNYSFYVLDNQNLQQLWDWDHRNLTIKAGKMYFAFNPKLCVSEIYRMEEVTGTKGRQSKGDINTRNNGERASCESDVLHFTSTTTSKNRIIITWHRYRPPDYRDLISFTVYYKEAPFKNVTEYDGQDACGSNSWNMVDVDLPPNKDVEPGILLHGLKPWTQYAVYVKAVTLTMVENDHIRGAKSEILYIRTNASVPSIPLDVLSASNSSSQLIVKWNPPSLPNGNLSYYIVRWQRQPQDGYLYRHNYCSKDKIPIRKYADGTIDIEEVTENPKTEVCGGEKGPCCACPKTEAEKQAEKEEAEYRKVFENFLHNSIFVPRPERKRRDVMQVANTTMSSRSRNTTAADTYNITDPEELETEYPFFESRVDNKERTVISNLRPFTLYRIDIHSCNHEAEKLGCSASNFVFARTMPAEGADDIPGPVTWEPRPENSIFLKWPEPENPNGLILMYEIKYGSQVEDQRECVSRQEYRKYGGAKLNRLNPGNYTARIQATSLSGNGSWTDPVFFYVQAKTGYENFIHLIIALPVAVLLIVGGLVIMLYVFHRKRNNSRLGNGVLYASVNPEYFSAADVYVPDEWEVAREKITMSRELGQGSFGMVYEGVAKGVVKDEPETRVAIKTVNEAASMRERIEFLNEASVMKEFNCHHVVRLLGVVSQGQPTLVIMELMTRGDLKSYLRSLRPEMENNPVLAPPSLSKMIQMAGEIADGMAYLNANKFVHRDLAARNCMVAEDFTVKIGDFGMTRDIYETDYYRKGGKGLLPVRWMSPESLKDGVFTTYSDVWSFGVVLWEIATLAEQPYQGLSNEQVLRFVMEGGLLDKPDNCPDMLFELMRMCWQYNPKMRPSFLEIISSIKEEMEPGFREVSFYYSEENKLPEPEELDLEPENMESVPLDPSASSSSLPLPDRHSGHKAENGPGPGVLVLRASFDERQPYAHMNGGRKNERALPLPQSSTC
Sequence of MAP3K7 (human) (O43318 whole entry, looked up): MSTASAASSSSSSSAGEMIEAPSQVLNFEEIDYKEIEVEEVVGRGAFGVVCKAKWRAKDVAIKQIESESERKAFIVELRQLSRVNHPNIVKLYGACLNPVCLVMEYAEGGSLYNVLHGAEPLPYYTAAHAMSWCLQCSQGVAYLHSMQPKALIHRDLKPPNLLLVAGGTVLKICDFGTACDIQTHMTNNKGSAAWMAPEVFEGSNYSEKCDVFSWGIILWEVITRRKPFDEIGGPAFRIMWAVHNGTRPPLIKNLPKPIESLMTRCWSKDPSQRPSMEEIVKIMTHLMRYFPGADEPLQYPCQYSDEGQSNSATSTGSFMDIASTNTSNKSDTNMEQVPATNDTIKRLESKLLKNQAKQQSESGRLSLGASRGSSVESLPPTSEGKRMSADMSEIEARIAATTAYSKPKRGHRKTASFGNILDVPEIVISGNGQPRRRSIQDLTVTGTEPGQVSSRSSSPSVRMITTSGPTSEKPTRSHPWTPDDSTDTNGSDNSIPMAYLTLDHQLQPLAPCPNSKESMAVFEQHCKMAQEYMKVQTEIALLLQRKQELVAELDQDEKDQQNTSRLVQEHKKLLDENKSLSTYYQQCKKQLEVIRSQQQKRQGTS

| SMILES | inhibition [1] [%] | inhibition (CAMK4 (human)) [%] | inhibition (IGF1R (human)) [%] | inhibition (MAP3K7 (human)) [%] | inhibition (PIM2 (human)) [%] | inhibition (PRKG1 (human)) [%] | inhibition (RPS6KB1 (human)) [%] | other results |
| --- | --- | --- | --- | --- | --- | --- | --- | --- |
| C[C@@H](NC(=O)c1c[nH]c2ncc(-c3nn(C)c4cc(Cl)ccc34)nc12)C(=O)N1CC(C#N)C1 | -179 | -11 | -12 | -24 | -15 | 0 | -12 | inhibition (ABL1 (human)): -13%; inhibition (AKT1 (human)): -11%; inhibition (DYRK1A (human)): -13%; inhibition (FGFR1 (human)): -11%; inhibition (KDR (human)): -18%; inhibition (MAP4K4 (human)): -17%; inhibition (MARK1 (human)): -11%; inhibition (MET (human)): -15%; inhibition (SGK1 (human)): -17% |
| C[C@@H](NC(=O)c1c[nH]c2ncc(-c3ncn4cc(F)cc(F)c34)nc12)C(=O)N1CC(C#N)C1 | -51 |  |  |  |  | 0 | -42 | inhibition (MAPKAPK5 (human)): -12% |
| C[C@@H](NC(=O)c1c[nH]c2ncc(-c3cn(C)c4cc(Cl)ccc34)nc12)C(=O)N1CC(C#N)C1 | -53 |  |  |  | -18 |  | -14 |  |
| C[C@@H](NC(=O)c1c[nH]c2ncc(-c3nn(C)c4cc(Cl)cc(F)c34)nc12)C(=O)N1CC(C#N)C1 | -52 | -24 | -30 | -11 |  |  | -33 | inhibition (CHEK1 (human)): -28% |
| CC[C@@H](NC(=O)c1c[nH]c2ncc(-c3nn(C)c4cc(Cl)ccc34)nc12)C(=O)N1CC(C#N)C1 | -35 |  |  |  |  |  | -12 | inhibition (INSR (human)): -11%; inhibition (PAK2 (human)): -29% |
